The results in this text go back to patent publication US9067892B2, “Spiroheterocyclic N-oxypiperidines as pesticides” (Syngenta Crop Protection, Inc., priority 2008, dated 2015).

Some results are limits rather than exact numbers.

The subject of series [1] is Myzus persicae (green peach aphid). Put plainly: Example B16: Myzus persicae on pepper plants, feeding/residual contact activity. Format: in vivo. As to conditions: 144 h, infested pepper plants sprayed, 6 days after treatment, mortality, read-out: activity against Myzus persicae.
Series [2] concerns Aphis craccivora (cowpea aphid). Put plainly: Example B11: translaminar activity against Aphis craccivora. Format: in vivo. As to conditions: 120 h, French bean leaves, aphids on lower side, upper side painted, 5 days, mortality. On the procedure:
Translaminar Activity Against Aphis craccivora (Cowpea Aphid) French bean leaves (Phaseolus vulgaris) are infested with about 20 mixed age individuals on the lower leaf side using clip cages. 1 day after the infestation, the upper side of the leaves is treated with the test solution by painting. 5 days later, samples are checked for mortality.

The subject of series [3] is Tetranychus urticae (two-spotted spider mite). Put plainly: Example B4: Tetranychus urticae, mixed population, feeding/residual contact activity, preventive. Format: in vivo. The following applies: foliar, 192 h, bean leaf discs sprayed, 8 days, egg, larval and adult mortality. The source says:
Activity Against Tetranychus urticae (Two-Spotted Spider Mite) (Mixed Population, Feeding/Residual Contact Activity, Preventive) Bean leaf discs on agar in 24-well microtiter plates are sprayed with test solutions. […] 8 days later, discs are checked for egg mortality, larval mortality, and adult mortality.

Series [4] concerns Nilaparvata lugens (brown rice planthopper). As to the kind of experiment: Example B8: Nilaparvata lugens, larvicide, feeding/contact. The following applies: rice seedlings sprayed, N3 nymphs, 6-12 days after treatment. The format is in vivo. On the procedure: Activity Against Nilaparvata lugens (Brown Rice Planthopper) (Larvicide, Feeding/Contact) Rice seedlings are treated with the diluted test solutions in a spray chamber. After drying, they are infested with 20 N3 nymphs (2 replicates). 6-12 days after the treatment samples are checked for mortality, growth regulation, and effects on the F1 generation.

The subject of series [5] is Myzus persicae (green peach aphid). As to the kind of experiment: Example B1: Myzus persicae, mixed population, feeding/residual contact activity, preventive. The following applies: foliar, 144 h, read-out: activity.
The test system is the same in series [6]. As to the kind of experiment: Example B2: Myzus persicae, mixed population, systemic/feeding activity, curative. The following applies: 144 h, read-out: activity.
The test system of series [7] is Thrips Tabaci (onion thrips). As to the kind of experiment: Example B3: Thrips tabaci, mixed population, feeding/residual contact activity, preventive. Format: in vivo. The following applies: foliar, 144 h, sunflower leaf discs sprayed, 6 days incubation, mortality.
The subject of series [8] is Myzus persicae (green peach aphid). Put plainly: Example B13: drench activity against Myzus persicae. As to conditions: 168 h, pea seedlings in field soil, 7 days after infestation, mortality. The format is in vivo. On the procedure: Drench Activity Against Myzus persicae (Green Peach Aphid) Pea seedlings cultivated in field soil are treated as drench application and infested with a mixed population of M. persicae. 7 days after infestation, samples are checked for mortality.

Series [9] concerns Aphis craccivora (cowpea aphid). Put plainly: Example B10: Aphis craccivora, mixed population, systemic/feeding. The format is in vivo. The following applies: 144 h, roots of infested pea seedlings in test solution, 6 days, mortality. From the text: 6 days later, samples are checked for mortality.

What is called melting point is the temperature, or range, at which the solid turns liquid. `CCOC(=O)OC1=C(c2cc(C)ccc2C)C(=O)N(C)C12CCN(OC)CC2` [P1.1] came in with a melting point of 96 to 110 °C.
Turning to `CCOC(=O)OC1=C(c2c(C)cc(C)cc2C)C(=O)N(CC2CC2)C12CCN(OC)CC2` [P1.5], in [1], the pest or weed control at 200 ppm is no less than 80%. Moreover, the pest or weed control at 400 ppm in series [2], in series [3] and in [4] was greater than 80% throughout.
For `CCOC(=O)OC1=C(c2c(C)cc(C)cc2Cl)C(=O)N(C)C12CCN(OC)CC2` [P1.6], the pest or weed control at 400 ppm in series [5] and in series [3] was greater than 80% in each case.
Regarding `CCOC(=O)OC1=C(c2c(C)cc(C)cc2C)C(=O)N(C2CC2)C12CCN(OC)CC2` [P1.7], the pest or weed control at 400 ppm in series [5] was greater than 80%.
In turn, `CCOC(=O)OC1=C(c2c(C)cc(C)cc2C)C(=O)N(CC)C12CCN(OC)CC2` [P1.8] displayed a melting point of 101 to 103 °C.
For `CCOC(=O)OC1=C(c2c(Cl)ccc(C)c2F)C(=O)N(C)C12CCN(OC)CC2` [P1.9], in [3], the pest or weed control at 400 ppm is greater than 80%.
In the case of `CCOC(=O)OC1=C(c2c(F)ccc(C)c2Cl)C(=O)N(C)C12CCN(OC)CC2` [P1.10], the pest or weed control at 400 ppm in [6] is greater than 80%.
Regarding `CCOC(=O)OC1=C(c2c(C)cc(Br)cc2C)C(=O)N(C)C12CCN(OC)CC2` [P1.12], the pest or weed control at 200 ppm in series [1] is no less than 80%. The pest or weed control at 400 ppm in series [5] and in series [3] was greater than 80% throughout.
On to `CCOC(=O)OC1=C(c2c(C)cccc2C)C(=O)N(C)C12CCN(OC)CC2` [P1.13], for which, in series [1], the pest or weed control at 200 ppm was no less than 80%. Also, the pest or weed control at 400 ppm in [5] is greater than 80%.
As to `CCOC(=O)OC1=C(c2c(C)cc(C)cc2C)C(=O)N(CCCOC)C12CCN(OC)CC2` [P1.16], the pest or weed control at 200 ppm in series [1] was no less than 80%. For the same compound, the pest or weed control at 400 ppm in series [5] and in series [3] was greater than 80% each time.
Turning to `CCOC(=O)OC1=C(c2c(C)cc(C)cc2C)C(=O)N(CCOCOC)C12CCN(OC)CC2` [P1.17], the pest or weed control at 400 ppm in [5] and in [6] was greater than 80% in each case.
`CCOC(=O)OC1=C(c2cc(C)c(C)cc2Br)C(=O)N(C)C12CCN(OC)CC2` [P1.20] came in with a melting point of 158 to 159 °C.
Consider `CCOC(=O)OC1=C(c2c(C)ccc(C)c2C)C(=O)N(C)C12CCN(OC)CC2` [P1.21], for which the pest or weed control at 200 ppm in [1] was no less than 80%. The compound further showed a pest or weed control at 400 ppm in series [3] greater than 80%.
Consider `CCOC(=O)OC1=C(c2cc(C)c(C)cc2Cl)C(=O)N(C)C12CCN(OC)CC2` [P1.22], for which the melting point fell in the range of 149 to 150 °C.
Take `CCOC(=O)OC1=C(c2ccc(C)cc2C)C(=O)N(C)C12CCN(OC)CC2` [P1.25]: the pest or weed control at 200 ppm in [1] is no less than 80%. In addition, the pest or weed control at 400 ppm in series [5] and in series [3] was greater than 80% in each case.
Consider `CCOC(=O)OC1=C(c2c(C)cc(C)cc2C)C(=O)N(CC2CCCO2)C12CCN(OC)CC2` (stereo not drawn) [P1.26], for which the pest or weed control at 400 ppm in series [3] is greater than 80%.
Consider `CCOC(=O)OC1=C(c2c(C)ccc(Cl)c2C)C(=O)N(C)C12CCN(OC)CC2` [P1.27], for which, in series [1], the pest or weed control at 200 ppm was no less than 80%. For the same compound, in series [5], the pest or weed control at 400 ppm is greater than 80%.
Turning to `CCOC(=O)OC1=C(c2cc(C)c(Cl)cc2C)C(=O)N(C)C12CCN(OC)CC2` [P1.28], in series [7], the pest or weed control at 400 ppm is greater than 80%.
Turning to `CCOC(=O)OC1=C(c2c(C)cc(Cl)cc2C)C(=O)N(C)C12CCN(OC)CC2` [P1.29], the pest or weed control at 200 ppm in [1] is no less than 80%. In addition, the pest or weed control at 400 ppm in series [5] is greater than 80%.
Turning to `CON1CCC2(CC1)C(O)=C(c1cc(C)ccc1C)C(=O)N2C` [P2.1], the melting point is 121 to 123 °C.
Consider `CON1CCC2(CC1)C(O)=C(c1ccc(Cl)cc1Cl)C(=O)N2CC(F)F` [P2.4], for which, in series [5], the pest or weed control at 400 ppm is greater than 80%.
In turn, `COCCN1C(=O)C(c2c(C)cc(C)cc2C)=C(O)C12CCN(OC)CC2` [P2.7] showed a pest or weed control at 25 ppm in series [8] greater than 80%. Further, the pest or weed control at 400 ppm in series [5], in series [2], in [9] and in series [4] was greater than 80% throughout.
Regarding `CON1CCC2(CC1)C(O)=C(c1c(C)cc(C)cc1C)C(=O)N2CC1CC1` [P2.8, 1-Cyclopropylmethyl-4-hydroxy-8-methoxy-3-(2,4,6-trimethyl-phenyl)-1,8-diaza-spiro[4.5]dec-3-en-2-one], the melting point is 223 to 225 °C.
For the compound `CON1CCC2(CC1)C(O)=C(c1c(C)cc(C)cc1Cl)C(=O)N2C` [P2.9], the pest or weed control at 400 ppm in series [5], in series [6] and in series [3] was greater than 80% each time.
As to `CON1CCC2(CC1)C(O)=C(c1c(C)cc(C)cc1C)C(=O)N2C1CC1` [P2.10], the pest or weed control at 400 ppm in series [5] is greater than 80%.
As to `CCN1C(=O)C(c2c(C)cc(C)cc2C)=C(O)C12CCN(OC)CC2` [P2.11], the melting point lay within 218 to 221 °C.
For the compound `CON1CCC2(CC1)C(O)=C(c1c(F)ccc(C)c1Cl)C(=O)N2C` [P2.13], in series [3], the pest or weed control at 400 ppm is greater than 80%.
In series [3], `CON1CCC2(CC1)C(O)=C(c1cc(C)c(Cl)cc1C)C(=O)N2C` [P2.15] yielded a pest or weed control at 400 ppm greater than 80%.
As for `CON1CCC2(CC1)C(O)=C(c1c(C)cc(Br)cc1C)C(=O)N2C` [P2.16], the pest or weed control at 200 ppm in series [1] was no less than 80%. In addition, the pest or weed control at 400 ppm in series [5] and in series [6] was greater than 80% throughout.
Take `CON1CCC2(CC1)C(O)=C(c1c(C)cccc1C)C(=O)N2C` [P2.17]: in series [1], the pest or weed control at 200 ppm was no less than 80%. Also, in series [5], the pest or weed control at 400 ppm is greater than 80%.
Regarding `COCCCN1C(=O)C(c2c(C)cc(C)cc2C)=C(O)C12CCN(OC)CC2` [P2.20], the pest or weed control at 400 ppm in [5], in series [6], in series [7] and in series [3] was greater than 80% throughout.
For `COCOCCN1C(=O)C(c2c(C)cc(C)cc2C)=C(O)C12CCN(OC)CC2` [P2.21], the pest or weed control at 200 ppm in [1] was no less than 80%. The pest or weed control at 400 ppm in [5], in [6] and in series [3] was greater than 80% each time.
With `CON1CCC2(CC1)C(O)=C(c1cc(C)c(C)cc1Br)C(=O)N2C` [P2.23], the melting point lay within 191 to 193 °C.
Turning to `CON1CCC2(CC1)C(O)=C(c1c(C)ccc(C)c1C)C(=O)N2C` [P2.24], the pest or weed control at 200 ppm in [1] was no less than 80%.
In turn, `CON1CCC2(CC1)C(O)=C(c1cc(C)c(C)cc1C)C(=O)N2C` [P2.25] registered a melting point of 183 to 186 °C.
On the same count and under the same terms, the result for `CON1CCC2(CC1)C(O)=C(c1cc(C)c(C)cc1Cl)C(=O)N2C` [P2.26, 3-(2-Chloro-4,5-dimethyl-phenyl)-4-hydroxy-8-methoxy-1-methyl-1,8-diaza-spiro[4.5]dec-3-en-2-one] reads 191 to 192 °C.
Regarding `CON1CCC2(CC1)C(O)=C(c1c(C)ccc(Cl)c1C)C(=O)N2C` [P2.27], the pest or weed control at 200 ppm in [1] is no less than 80%.
Same read-out and setting: with `CON1CCC2(CC1)C(O)=C(c1c(C)cc(C)cc1C)C(=O)N2CC1(C)COC1` [P2.30] the figure was no less than 80%.
As to `CON1CCC2(CC1)C(O)=C(c1c(C)cc(C)c(Cl)c1C)C(=O)N2C` [P2.31], the pest or weed control at 200 ppm in [1] was no less than 80%. Besides, the pest or weed control at 400 ppm in series [5], in series [6] and in [3] was greater than 80% throughout.
In [3], `CON1CCC2(CC1)C(O)=C(c1c(C)cc(C)cc1C)C(=O)N2CC1CCCO1` (stereo not drawn) [P2.32] showed a pest or weed control at 400 ppm greater than 80%.
Take `CON1CCC2(CC1)C(O)=C(c1c(C)cc(Cl)cc1C)C(=O)N2C` [P2.33]: the pest or weed control at 200 ppm in [1] is no less than 80%. In addition, the pest or weed control at 400 ppm in [5] was greater than 80%.
Regarding `CON1CCC2(CC1)C(O)=C(c1c(C)cc(Br)cc1Cl)C(=O)N2C` [P2.34], the pest or weed control at 200 ppm in series [1] is no less than 80%.
In series [7], `COc1cc(COC2=C(c3cc(C)ccc3C)C(=O)NC23CCN(OC)CC3)cc(OC)c1OC` [P3.1] showed a pest or weed control at 400 ppm greater than 80%.
Compound `COc1ccc(COC2=C(c3cc(C)ccc3C)C(=O)NC23CCN(OC)CC3)cc1` [P3.2] returned a pest or weed control at 400 ppm in [7] greater than 80%.
Regarding `CON1CCC2(CC1)NC(=O)C(c1c(C)cc(C)cc1C)=C2OCc1ccccc1` [P3.4, 4-benzyloxy-8-methoxy-3-(2,4,6-trimethyl-phenyl)-1,8-diaza-spiro[4.5]dec-3-en-2-one], the pest or weed control at 400 ppm in series [7] and in series [3] was greater than 80% each time.
In [3], `CON1CCC2(CC1)C(OCc1ccccc1)=C(c1c(C)cc(C)cc1C)C(=O)N2CC1CC1` [P3.8, 4-benzyloxy-1-cyclopropylmethyl-8-methoxy-3-(2,4,6-trimethyl-phenyl)-1,8-diaza-spiro[4.5]dec-3-en-2-one] displayed a pest or weed control at 400 ppm greater than 80%.
